Reference: ChEMBL document CHEMBL1201862, “PubChem BioAssay data set” (2004)
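96-well plates; 48 h exposure; 5 concentrations. Endpoints by linear interpolation between flanking doses. Not reached: highest tested concentration assigned. Here, GI50 denotes the concentration required for 50% inhibition of growth.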 Activity calls are given as the source filed them. Cut-off read from the data, not from the text of the source: active = GI50 up to about 1.1 µM and inactive = higher.

Columns and labels:
Experiment in all cases: NCI anticancer screen, dose series, 48 h
[1] = test system: UO-31
[2] = test system: SK-OV-3
[3] = test system: IGROV-1
[4] = test system: NCI-H23
[5] = test system: HCT-15
[6] = test system: U-251
[7] = test system: SNB-19
[8] = test system: COLO 205
[9] = test system: HOP-62
[10] = test system: KM12
[11] = test system: HOP-92
[12] = test system: OVCAR-8
[13] = test system: CAKI-1
[14] = test system: TK-10
[15] = test system: UACC-62
[16] = test system: ACHN
[17] = test system: M14
[18] = test system: EKVX
[19] = test system: NCI-H226

Row | SMILES | GI50 [1] | GI50 [2] | GI50 [3] | GI50 [4] | GI50 [5] [µM] | GI50 [6] | GI50 [7] | GI50 [8] | GI50 [9] | GI50 [10] | GI50 [11] | GI50 [12] | GI50 [13] | GI50 [14] | GI50 [15] | GI50 [16] | GI50 [17] | GI50 [18] | GI50 [19]
1 | CC1(CO)OC(n2cnc3c(N)ncnc32)C(O)C1O (centres undefined) | > 100 µM (inactive) | > 100 µM (inactive) | > 100 µM (inactive) | > 100 µM (inactive) | > 100 | > 100 µM (inactive) | > 100 µM (inactive) | > 100 µM (inactive) | > 100 µM (inactive) | > 100 µM (inactive) | > 100 µM (inactive) | > 100 µM (inactive) | > 100 µM (inactive) | > 100 µM (inactive) | > 100 µM (inactive) | > 100 µM (inactive) | > 100 µM (inactive) |  | 
2 | CCN(CC)CCn1c2ccccc2c(=O)c2c(OC)ccc(OC)c21 | 43.9 µM (inactive) | > 10 µM (inactive) | > 10 µM (inactive) | > 100 µM (inactive) | 57.5 | 65.6 µM (inactive) | > 100 µM (inactive) | 38.7 µM (inactive) | > 100 µM (inactive) | 56.9 µM (inactive) | > 94.2 µM (inactive) | 48.4 µM (inactive) | 68.5 µM (inactive) |  | > 10 µM (inactive) | 47.9 µM (inactive) | > 100 µM (inactive) | > 100 µM (inactive) | 60.3 µM (inactive)
3 | COc1cc(=O)oc(/C=C/C=O)c1C | 20.8 µM (inactive) | 27.2 µM (inactive) | 30.4 µM (inactive) | 21.9 µM (inactive) |  | 14.3 µM (inactive) | 14.8 µM (inactive) | 16.4 µM (inactive) | 19.5 µM (inactive) | 21.9 µM (inactive) | 26.9 µM (inactive) | 26.3 µM (inactive) | 33 µM (inactive) | 31.2 µM (inactive) | 16 µM (inactive) | 19.2 µM (inactive) | 17.9 µM (inactive) | 35.7 µM (inactive) | 31.2 µM (inactive)
4 | O=c1[nH]cnc2c(COCCCO)c[nH]c12 | > 100 µM (inactive) | > 100 µM (inactive) | > 100 µM (inactive) | > 100 µM (inactive) | > 100 | > 100 µM (inactive) | > 100 µM (inactive) | > 100 µM (inactive) | > 100 µM (inactive) | > 100 µM (inactive) | > 100 µM (inactive) | > 100 µM (inactive) | > 100 µM (inactive) | > 100 µM (inactive) | > 100 µM (inactive) | > 100 µM (inactive) | > 100 µM (inactive) | > 100 µM (inactive) | 
5 | Clc1cc(Cl)cc(C2SCc3nc4ccccc4n32)c1 (centres undefined) | 19.3 µM (inactive) | 22.8 µM (inactive) |  | 17 µM (inactive) |  | 14 µM (inactive) | 20.7 µM (inactive) | 18.2 µM (inactive) |  | 13.6 µM (inactive) | 14.4 µM (inactive) | 17 µM (inactive) | 14.9 µM (inactive) | 27.7 µM (inactive) | 21.5 µM (inactive) | 22.9 µM (inactive) |  | 22.6 µM (inactive) | 19.9 µM (inactive)
6 | CCN(CC)CCn1nc2c3c(c(NCCN)ccc31)Sc1cc(O)ccc1-2 | 12.3 µM (inactive) | 1.25 µM (inactive) | 0.505 µM (active) | 0.451 µM (active) | 3.03 | 0.254 µM (active) | 0.611 µM (active) | 0.865 µM (active) | 0.416 µM (active) | 0.615 µM (active) | 0.94 µM (active) | 0.535 µM (active) | 0.516 µM (active) | 2.22 µM (inactive) | 0.371 µM (active) | 0.579 µM (active) | 0.455 µM (active) | 1.4 µM (inactive) | 
